From publication PMC6274554, “Synthetic Strategy and Anti-Tumor Activities of Macrocyclic Scaffolds Based on 4-Hydroxyproline” (Molecules, 2016)
Where two headings read alike, the source gives them in different places.

What was measured:
Type in all cases: cell-based, human
[1] = tested on: breast cancer cell line MDA-MB-231; test: MTT cytotoxicity assay, MDA-MB-231; details: MDA-MB-231 cells, 8000 cells/well, 24 h incubation with compound, absorbance 490 nm, read-out: IC50 (μmol/L) MDA-MB-231
From the text: (§1) A small library derived from 6a–b, 9 and 10a–c was obtained by hydrolysis of the macrocycles and condensation with amines. The anti-tumor activities for lung cancer cell line A549, breast cancer cell line MDA-MB-231 and hepatocarcinoma cell line Hep G2 of all these new compounds were screened in vitro by an MTT assay. Most of the compounds show some inhibitory activities against A549, MDA-MB-231 and Hep G2. […] In the future, further structure–activity relationship studies will be performed to determine how the substituents affected the anti-tumor activity and to design the best chemical structure in the future.
(§2) The human lung cancer cell line A549, breast cancer cell line MDA-MB-231 and hepatocarcinoma cell line Hep G2 were cultured in Dulbecco’s modified Eagle’s medium (DMEM) supplemented with antibiotics (penicillin 50 U/mL; streptomycin 50 µg/mL) and 10% FCS. The incubation was at 37 °C in a humidified atmosphere of 5% CO2 in air before experiments. Cells were first seeded at a density of 8000 cells/well in a 96-well plate for 48 hours. Solutions containing respective concentrations of compounds were added into wells and incubation continued for another 24 hours. After that, the MTT (3-(4,5-dimethylthiazol-2-yl)-2,5-diphenyltetrazolium bromide) dye stock solution (10 μL, 5 mg/mL) was added to each well. After 4 h, the supernatant was removed and DMSO (100 μL) was added to solubilize the MTT. The absorbance was measured at a wave length of 490 nm (A490nm) on an ELISA microplate reader. Results were expressed as IC50 values.

[2] = tested on: hepatocarcinoma cell line Hep G2; test: MTT cytotoxicity assay, Hep G2; details: 8000 cells/well, 24 h incubation with compound, absorbance 490 nm, read-out: IC50 (μmol/L) Hep G2
From the text: as §1, §2

[3] = tested on: lung cancer cell line A549; test: MTT cytotoxicity assay, A549; details: A549 cells, 8000 cells/well, 24 h incubation with compound, absorbance 490 nm, read-out: IC50 (μmol/L) A549
From the text: as §1, §2

[4] = Homo sapiens, HepG2, Hep G2 cells

## O=C(Nc1ccccc1)[C@@H]1C[C@@H]2CN1C(=O)c1cccc(c1)OCCCCO2 [Compound 36, (8R,10S)-12-Oxo-N-phenyl-2,7-dioxa-11-aza-tricyclo[11.3.1.1^8,11]octadecane-1(17),13,15-triene-10-carboxamide]
[1]; Homo sapiens
  IC50: 85.3 µmol/L
[2]; [4]
  IC50: 95.4 µmol/L
[3]; Homo sapiens
  IC50: 54.3 µmol/L

## NC(=O)[C@@H]1C[C@@H]2CN1C(=O)c1cccc(c1)OCCCCCCO2 [Compound 43, (10R,12S)-14-Oxo-2,9-dioxa-13-aza-tricyclo[13.3.1.1^10,13]eicosane-1(19),15,17-triene-12-carboxamide]
[1]; Homo sapiens
  IC50: 66 µmol/L
[2]; [4]
  IC50: 64.9 µmol/L
[3]; Homo sapiens
  IC50: 69.7 µmol/L

## CC(C)CNC(=O)[C@@H]1C[C@@H]2CN1C(=O)c1cccc(c1)OCCCCO2 [Compound 37, (8R,10S)-12-Oxo-N-isobutyl-2,7-dioxa-11-aza-tricyclo[11.3.1.1^8,11]octadecane-1(17),13,15-triene-10-carboxamide]
[1]; Homo sapiens
  IC50: 86.3 µmol/L
[2]; [4]
  IC50: 73.1 µmol/L
[3]; Homo sapiens
  IC50: 77.9 µmol/L

## O=C(Nc1ccccc1)[C@@H]1C[C@@H]2CN1C(=O)c1cccc(c1)OCCn1nncc1CO2 [Compound 28, (12R,14S)-16-Oxo-N-phenyl-2,11-dioxa-5,6,7,15-tetraaza-tetracyclo[15.3.1.1^12,15.0^5,9]docosane-6,8,1(21),17,19-pentaene-14-carboxamide]
[1]; Homo sapiens
  IC50: 43.7 µmol/L
[2]; [4]
  IC50: 36.3 µmol/L
[3]; Homo sapiens
  IC50: 46.3 µmol/L

## CC(C)CNC(=O)[C@@H]1C[C@@H]2CN1C(=O)c1cccc(c1)OC/C=C\CO2 [Compound 33, (4Z,8R,10S)-12-Oxo-N-isobutyl-2,7-dioxa-11-aza-tricyclo[11.3.1.1^8,11]octadecane-4,1(17),13,15-tetraene-10-carboxamide]
[1]; Homo sapiens
  IC50: 11.9 µmol/L
[2]; [4]
  IC50: 41.1 µmol/L
[3]; Homo sapiens
  IC50: 2.55 µmol/L

## NC(=O)[C@@H]1C[C@@H]2CN1C(=O)c1cccc(c1)OCCn1nncc1CO2 [Compound 27, (12R,14S)-16-Oxo-2,11-dioxa-5,6,7,15-tetraaza-tetracyclo[15.3.1.1^12,15.0^5,9]docosane-6,8,1(21),17,19-pentaene-14-carboxamide]
[1]; Homo sapiens
  IC50: 28 µmol/L
[2]; [4]
  IC50: 34.7 µmol/L
[3]; Homo sapiens
  IC50: 41.3 µmol/L

## O=C(O)[C@@H]1C[C@@H]2CN1C(=O)c1cccc(c1)OCCn1nncc1CO2 [Compound 26, (12R,14S)-16-Oxo-2,11-dioxa-5,6,7,15-tetraaza-tetracyclo[15.3.1.1^12,15.0^5,9]docosane-6,8,1(21),17,19-pentaene-14-carboxylic acid]
[1]; Homo sapiens
  IC50: 34.3 µmol/L
[2]; [4]
  IC50: 44.9 µmol/L
[3]; Homo sapiens
  IC50: 37.1 µmol/L

## O=C(Nc1ccccc1)[C@@H]1C[C@@H]2CN1C(=O)c1cccc(c1)OC/C=C\CO2 [Compound 32, (4Z,8R,10S)-12-Oxo-N-phenyl-2,7-dioxa-11-aza-tricyclo[11.3.1.1^8,11]octadecane-4,1(17),13,15-tetraene-10-carboxamide]
[1]; Homo sapiens
  IC50: 9.67 µmol/L
[2]; [4]
  IC50: 26.3 µmol/L
[3]; Homo sapiens
  IC50: 4.76 µmol/L

## O=C(O)[C@@H]1C[C@@H]2CN1C(=O)c1cccc(c1)OCCCCCCO2 [Compound 42, (10R,12S)-14-Oxo-2,9-dioxa-13-aza-tricyclo[13.3.1.1^10,13]eicosane-1(19),15,17-triene-12-carboxylic acid]
[1]; Homo sapiens
  IC50: > 100 µmol/L
[2]; [4]
  IC50: 87.4 µmol/L
[3]; Homo sapiens
  IC50: > 100 µmol/L

## O=C(Nc1ccccc1)[C@@H]1C[C@@H]2CN1C(=O)c1cccc(c1)OCCCCCO2 [Compound 40, (9R,11S)-13-Oxo-N-phenyl-2,8-dioxa-12-aza-tricyclo[12.3.1.1^9,12]nonadecane-1(18),14,16-triene-11-carboxamide]
[1]; Homo sapiens
  IC50: 76.4 µmol/L
[2]; [4]
  IC50: 68.4 µmol/L
[3]; Homo sapiens
  IC50: 88 µmol/L

## O=C(O)[C@@H]1C[C@@H]2CN1C(=O)c1cccc(c1)OC/C=C\CO2 [Compound 30, (4Z,8R,10S)-12-Oxo-2,7-dioxa-11-aza-tricyclo[11.3.1.1^8,11]octadecane-4,1(17),13,15-tetraene-10-carboxylic acid]
[1]; Homo sapiens
  IC50: 10.3 µmol/L
[2]; [4]
  IC50: 23.2 µmol/L
[3]; Homo sapiens
  IC50: 11.2 µmol/L

## CC(C)CNC(=O)[C@@H]1C[C@@H]2CN1C(=O)c1cccc(c1)OCCCCCO2 [Compound 41, (9R,11S)-13-Oxo-N-isobutyl-2,8-dioxa-12-aza-tricyclo[12.3.1.1^9,12]nonadecane-1(18),14,16-triene-11-carboxamide]
[1]; Homo sapiens
  IC50: 47.3 µmol/L
[2]; [4]
  IC50: > 100 µmol/L
[3]; Homo sapiens
  IC50: 34.9 µmol/L

## O=C(Nc1ccccc1)[C@@H]1C[C@@H]2CN1C(=O)c1cccc(c1)OCCn1cc(nn1)CO2 [Compound 24, (11R,13S)-15-Oxo-N-phenyl-2,10-dioxa-5,6,7,14-tetraaza-tetracyclo[14.3.1.1^5,8.1^11,14]docosane-6,8(21),1(20),16,18-pentaene-13-carboxamide]
[1]
  IC50: 35.6 µmol/L
[2]; Hep G2 cells
  IC50: 46.3 µmol/L
[3]
  IC50: 45.7 µmol/L

## NC(=O)[C@@H]1C[C@@H]2CN1C(=O)c1cccc(c1)OCCCCCO2 [Compound 39, (9R,11S)-13-Oxo-2,8-dioxa-12-aza-tricyclo[12.3.1.1^9,12]nonadecane-1(18),14,16-triene-11-carboxamide]
[1]; Homo sapiens
  IC50: 57.3 µmol/L
[2]; [4]
  IC50: > 100 µmol/L
[3]; Homo sapiens
  IC50: 63.7 µmol/L

## NC(=O)[C@@H]1C[C@@H]2CN1C(=O)c1cccc(c1)OCCn1cc(nn1)CO2 [Compound 23, (11R,13S)-15-Oxo-2,10-dioxa-5,6,7,14-tetraaza-tetracyclo[14.3.1.1^5,8.1^11,14]docosane-6,8(21),1(20),16,18-pentaene-13-carboxamide]
[1]
  IC50: 29.9 µmol/L
[2]; Hep G2 cells
  IC50: 37.3 µmol/L
[3]
  IC50: 26.8 µmol/L

## N.N.[Cl][Pt][Cl] [Cisplatin, reference compound]
[1]
  IC50: 19.7 µmol/L
[2]; Hep G2 cells
  IC50: 17.4 µmol/L
[3]
  IC50: 15.4 µmol/L

## CC(C)CNC(=O)[C@@H]1C[C@@H]2CN1C(=O)c1cccc(c1)OCCn1cc(nn1)CO2 [Compound 25, (11R,13S)-15-Oxo-N-isobutyl-2,10-dioxa-5,6,7,14-tetraaza-tetracyclo[14.3.1.1^5,8.1^11,14]docosane-6,8(21),1(20),16,18-pentaene-13-carboxamide]
[1]
  IC50: 42.5 µmol/L
[2]; Hep G2 cells
  IC50: 48.3 µmol/L
[3]
  IC50: 37.7 µmol/L

## O=C(O)[C@@H]1C[C@@H]2CN1C(=O)c1cccc(c1)OCCCCCO2 [Compound 38, (9R,11S)-13-Oxo-2,8-dioxa-12-aza-tricyclo[12.3.1.1^9,12]nonadecane-1(18),14,16-triene-11-carboxylic acid]
[1]; Homo sapiens
  IC50: 92.3 µmol/L
[2]; [4]
  IC50: > 100 µmol/L
[3]; Homo sapiens
  IC50: > 100 µmol/L

## O=C(O)[C@@H]1C[C@@H]2CN1C(=O)c1cccc(c1)OCCn1cc(nn1)CO2 [Compound 22, (11R,13S)-15-Oxo-2,10-dioxa-5,6,7,14-tetraaza-tetracyclo[14.3.1.1^5,8.1^11,14]docosane-6,8(21),1(20),16,18-pentaene-13-carboxylic acid]
[1]
  IC50: 45.1 µmol/L
[2]; Hep G2 cells
  IC50: 44.2 µmol/L
[3]
  IC50: 32.2 µmol/L

## CC(C)CNC(=O)[C@@H]1C[C@@H]2CN1C(=O)c1cccc(c1)OCCCCCCO2 [Compound 45, (10R,12S)-14-oxo-N-Isobutyl-2,9-dioxa-13-aza-tricyclo[13.3.1.1^10,13]eicosane-1(19),15,17-triene-12-carboxamide]
[1]; Homo sapiens
  IC50: 88.7 µmol/L
[2]; [4]
  IC50: 89.6 µmol/L
[3]; Homo sapiens
  IC50: 93.6 µmol/L

## CC(C)CNC(=O)[C@@H]1C[C@@H]2CN1C(=O)c1cccc(c1)OCCn1nncc1CO2 [Compound 29, (12R,14S)-16-Oxo-N-isobutyl-2,11-dioxa-5,6,7,15-tetraaza-tetracyclo[15.3.1.1^12,15.0^5,9]docosane-6,8,1(21),17,19-pentaene-14-carboxamide]
[1]; Homo sapiens
  IC50: 43.2 µmol/L
[2]; [4]
  IC50: 37.3 µmol/L
[3]; Homo sapiens
  IC50: 32.2 µmol/L

## NC(=O)[C@@H]1C[C@@H]2CN1C(=O)c1cccc(c1)OC/C=C\CO2 [Compound 31, (4Z,8R,10S)-12-Oxo-2,7-dioxa-11-aza-tricyclo[11.3.1.1^8,11]octadecane-4,1(17),13,15-tetraene-10-carboxamide]
[1]; Homo sapiens
  IC50: 12.3 µmol/L
[2]; [4]
  IC50: 31.9 µmol/L
[3]; Homo sapiens
  IC50: 5.21 µmol/L

## NC(=O)[C@@H]1C[C@@H]2CN1C(=O)c1cccc(c1)OCCCCO2 [Compound 35, (8R,10S)-12-Oxo-2,7-dioxa-11-aza-tricyclo[11.3.1.1^8,11]octadecane-1(17),13,15-triene-10-carboxamide]
[1]; Homo sapiens
  IC50: 90.5 µmol/L
[2]; [4]
  IC50: 91.5 µmol/L
[3]; Homo sapiens
  IC50: 89.5 µmol/L

## O=C(O)[C@@H]1C[C@@H]2CN1C(=O)c1cccc(c1)OCCCCO2 [Compound 34, (8R,10S)-12-Oxo-2,7-dioxa-11-aza-tricyclo[11.3.1.1^8,11]octadecane-1(17),13,15-triene-10-carboxylic acid]
[1]; Homo sapiens
  IC50: 96.2 µmol/L
[2]; [4]
  IC50: 96.2 µmol/L
[3]; Homo sapiens
  IC50: > 100 µmol/L
